Reference: PubChem BioAssay AID1996
In brackets after ≈: the same amount, converted by molar mass.

Settings: buffer; pH 7.4; 200.0 µM
Work on `Cc1cccnc1NC(=O)CNC(=O)c1cccs1` yielded a solubility kinetic of over 41.3 µg/mL.
In the case of `CC(=O)Nc1ccccc1NS(=O)(=O)c1ccccc1[N+](=O)[O-]`, the solubility kinetic is reported as 47.4 µg/mL (≈ 141 µM).
`FC(F)(F)c1ccccc1CN1CCC(Cc2ccccc2)CC1` gave a solubility kinetic of under 0.7 µg/mL.
Work on `O=C(CCc1ccccc1O)NC1CCCc2ccccc21` (centres undefined) yielded a solubility kinetic of over 44.3 µg/mL.
With `Cc1c(C(=O)c2ccccc2)c(=O)n(C)c(=O)n1C` the solubility kinetic was over 38.7 µg/mL.
`COc1ccc(S(=O)(=O)Nc2cccc(S(=O)(=O)N3CCCCC3)c2)cc1` gave a solubility kinetic of 44 µg/mL (≈ 107 µM).
With `CC(=O)Nc1ccc(NC(=O)COC(=O)C2CCCCC2)cc1` the solubility kinetic was over 47.8 µg/mL.
`CC(C)(C)NCc1ccc(OCc2cccs2)cc1.Cl` gave a solubility kinetic of 36.8 µg/mL.
`Cc1ccc(C(=O)NCCCNC(=O)COc2ccc(C)c(C)c2)cn1` gave a solubility kinetic of 49.1 µg/mL (≈ 138 µM).
Work on `Cc1cnc(C(=O)OCC(=O)Nc2ccccc2[N+](=O)[O-])cn1` yielded a solubility kinetic of over 47.4 µg/mL.
With `O=C(c1ccc(Cl)cc1)N1CCCCC(Cl)C1=O` (centres undefined) the solubility kinetic was 6.9 µg/mL (≈ 24.1 µM).
For `COc1ccc(CCNC(=O)c2csc3c2CCCC3)cc1`, the solubility kinetic was 2.1 µg/mL (≈ 6.66 µM).
Compound `CCCn1c(C)c(C(=O)OCC)c(O)c(-c2ccccc2)c1=O` has a solubility kinetic of over 47.3 µg/mL.
In the case of `Cc1ccc(C(=O)NCCc2c[nH]c3ccccc23)s1`, the solubility kinetic is reported as over 42.7 µg/mL.
In the case of `Cc1ccccc1CC(=O)N1CCN(C(=O)C2CCCO2)CC1` (centres undefined), the solubility kinetic is reported as over 47.5 µg/mL.
With `CCc1cccc(C)c1NS(=O)(=O)c1cccs1` the solubility kinetic was 14.6 µg/mL (≈ 51.9 µM).
`Cc1c(C)n(CCCN(C)C)c2ncnc(NCc3ccccc3)c12` gave a solubility kinetic of over 50.6 µg/mL.
For `CSc1cccc(NC(=S)Nc2ccc(F)cc2)c1`, the solubility kinetic was 34.5 µg/mL (≈ 118 µM).
Compound `COc1ccc(C(=O)COc2ccc(C)cc2NC(C)=O)cc1` has a solubility kinetic of 36.7 µg/mL (≈ 117 µM).
With `Nc1cc2nc3ccccc3nc2cc1N` the solubility kinetic was 5.1 µg/mL (≈ 24.3 µM).
For `CCC(=O)Nc1cc(OC)cc(OC)c1`, the solubility kinetic was over 31.4 µg/mL.
For `O=C(OCC(=O)c1ccc[nH]1)c1ccc2ccccc2n1`, the solubility kinetic was 30 µg/mL (≈ 107 µM).
For `O=C1CSC(=Nc2ccc(Cl)cc2)N1Cc1ccco1`, the solubility kinetic was 10.9 µg/mL (≈ 35.5 µM).
For `O=C(CCSCc1ccccc1F)NCCc1ccccc1`, the solubility kinetic was 17.8 µg/mL (≈ 56.1 µM).
`O=C(c1ccc(F)cc1)c1ccc(N2CCCCC2)cc1` gave a solubility kinetic of 3.6 µg/mL (≈ 12.7 µM).
With `Nc1nccc(/C=C/c2ccc(Cl)cc2)n1` the solubility kinetic was 3.2 µg/mL (≈ 13.8 µM).
`O=C(NCc1ccc(Cl)cc1)c1cc2ccccc2oc1=O` showed a solubility kinetic of under 0.7 µg/mL.
`Cc1ccc(C(=O)Nc2sc3c(c2C(=O)O)CCCC3)o1` gave a solubility kinetic of over 45.8 µg/mL.
`CN1CCN(CC#CCC2(O)c3ccccc3-c3ccccc32)CC1` gave a solubility kinetic of 42.1 µg/mL (≈ 127 µM).
For `O=C(CSc1nc2ccccc2[nH]1)NC1CCCC1`, the solubility kinetic was 38.7 µg/mL (≈ 141 µM).
`O=[N+]([O-])c1cc(C(F)(F)F)ccc1NCCc1ccncc1` showed a solubility kinetic of 1.6 µg/mL (≈ 5.14 µM).
Work on `C=CCOc1ccc(CNc2ccc3[nH]c(=O)[nH]c3c2)cc1OC` yielded a solubility kinetic of 2.7 µg/mL (≈ 8.3 µM).
Compound `CCN(CCO)c1nc(N2CCCCC2)c2cnn(C)c2n1` has a solubility kinetic of over 45.7 µg/mL.
`C1=C(c2c[nH]c3ccccc23)CCN(Cc2ccccc2)C1` showed a solubility kinetic of 7.2 µg/mL (≈ 25 µM).
In the case of `O=C(Nc1ccc(-c2cnco2)cc1)c1ccc(F)cc1F`, the solubility kinetic is reported as 0.8 µg/mL (≈ 2.66 µM).
`COc1ccc(OC)c(NC(=O)COC(=O)Cc2ccsc2)c1` gave a solubility kinetic of 36.2 µg/mL (≈ 108 µM).
With `O=C(Nc1nc2ccccc2[nH]1)Nc1ccccc1F` the solubility kinetic was 3.3 µg/mL (≈ 12.2 µM).
`c1ccc2c(c1)[nH]c1cnccc12` gave a solubility kinetic of over 25.2 µg/mL.
For `CC(=O)N(CN1C(=O)CCC1=O)c1ccc(Cl)c(Cl)c1`, the solubility kinetic was over 47.3 µg/mL.
In the case of `CC(CCN1CCN(c2ccc(F)cc2)CC1)c1ccccc1` (centres undefined), the solubility kinetic is reported as 19.6 µg/mL (≈ 62.7 µM).
`COc1ccccc1NC(=O)CCSc1nc(C)cs1` gave a solubility kinetic of over 46.3 µg/mL.
`CCCn1c(=O)c2[nH]c(-c3ccc(S(=O)(=O)O)cc3)nc2n(CCC)c1=O` gave a solubility kinetic of over 58.9 µg/mL.
`CCOc1ccccc1CNc1nc2ccccc2n1C` gave a solubility kinetic of 5.2 µg/mL (≈ 18.5 µM).
Work on `O=C(NC(=S)Nc1ccccc1N1CCCC1)c1ccco1` yielded a solubility kinetic of 25.3 µg/mL (≈ 80.2 µM).
`Cc1ccc(NC(=S)Nc2cccc3ccccc23)cc1` showed a solubility kinetic of 1.5 µg/mL (≈ 5.13 µM).
`Cc1ccc2c(C(=O)CN3CCCC(C)C3)c(C)[nH]c2c1` (centres undefined) showed a solubility kinetic of 39.3 µg/mL (≈ 138 µM).
In the case of `N#C/C(=C\c1ccc(F)cc1)C(=O)NC1CCS(=O)(=O)C1` (centres undefined), the solubility kinetic is reported as 33.8 µg/mL (≈ 110 µM).
For `CC(=O)NC(C)(CC(=O)c1ccccc1)c1ccccc1` (centres undefined), the solubility kinetic was over 42.2 µg/mL.
For `O=C(O)[C@@H]1Cc2ccccc2N1`, the solubility kinetic was 6.6 µg/mL (≈ 40.4 µM).
